Results as given in patent publication US20080206761A1, “Ex Vivo Gene Expression in Whole Blood as a Model of Assessment of Individual Variation to Dietary Supplements” (priority 2005, published 2008).

Legend:
[1] = test system: TNF-α mRNA; assay: PHA-induced TNF-α mRNA expression in heparinized whole blood ex vivo; type: cell-based, human
[2] = test system: IL-2 mRNA; assay: PHA-induced IL-2 mRNA expression in heparinized whole blood ex vivo; type: cell-based, human
[3] = test system: IL-4 mRNA; assay: PHA-induced IL-4 mRNA expression in heparinized whole blood ex vivo; type: cell-based, human
[4] = test system: IL-2 mRNA; assay: PHA-induced IL-2 mRNA expression in heparinized whole blood ex vivo; type: cell-based, human; settings: for ΔΔCt (mean ± standard deviation, n = 3), IL-2 mRNA: supplement 30 min, concentrations per footnote
Experimental: (§1) In this embodiment, phytohemagglutinin-induced gene expression of interleukin-2 (IL-2), interleukin-4 (IL-4), and tumor necrosis factor-α (TNF-α) were quantitated in the following manner. Fifty μL of heparinized whole blood was incubated with various dietary supplements for a period of 30 minutes. The following supplements were employed: vitamins A, C, and D, epigallocatechin gallate (from green tea), genistein (from soy), and curcumin (from the spice turmeric). Vitamin A is known to stimulate the immune system. […] Vitamin D appears to have protective effects against certain cancers. Epigallocatechin gallate is a powerful antioxidant, appears to reduce the multidrug resistance found in cancer cells, and preferentially induces apoptosis in neoplastic cells. Genistein has been found in some studies to have anticarcinogenic activity; possible mechanisms of action include upregulation of apoptosis, inhibition of angiogenesis, inhibition of DNA topoisomerase II and inhibition of protein tyrosine kinases. Curcumin has proapoptotic effects in neoplastic cells and interferes with the activity of the transcription factor NF-κB, which is often highly overexpressed in such cells.
(§2) After incubation with the dietary supplement, 100 μg/mL phytohemagglutinin (PHA) was added and incubation was continued for an additional 2 hours at 37° C. The concentration of each dietary supplement (see Table I, note) was slightly higher than reported blood levels. Then mRNA was purified, cDNA was synthesized, and the levels of IL-2, IL-4, and TNF-α were quantitated by TaqMan real time polymerase chain reaction (PCR) (see Holland, et al., “Detection of specific polymerase chain reaction product by utilizing the 5′ to 3′ exonuclease activity of Thermus aquaticus DNA polymerase,” Proc Natl Acad Sci USA 1991; 88: 7276-80), as described below.
(§3) The mRNA and cDNA were prepared from the whole blood that was exposed to the dietary components, as well as the whole blood which remained unexposed. In brief, home-made 96-well filterplates were placed over collection plates, and 150 μl 5 mM Tris, pH 7.4, was applied. Following centrifugation at 120×g for 1 min at 4° C., 50 μl of blood samples were applied to each well and immediately centrifuged at 120×g for 2 min at 4° C., followed by washing of each well with 300 μl PBS once with centrifugation at 2000×g for 5 min at 4° C. Then, 60 μl stock lysis buffer, containing for example 0.5% N-Lauroylsarcosine, 4×SSC, 10 mM Tris HCl, pH 7.4, 1 mM EDTA, 0.1% IGEPAL CA-630, and 1.791 M guanidine thiocyanate, supplemented with 1% 2-mercaptoethanol (Bio Rad, Hercules, Calif., USA), 0.5 mg/ml proteinase K (Pierce, Rockford, Ill., USA), 0.1 mg/ml salmon sperm DNA (5 Prime Eppendorf/Brinkmann, Westbury, N.Y., USA), 0.1 mg/ml E. coli tRNA (Sigma), a cocktail of 10 mM each of the specific reverse primers shown in Table 2, and standard RNA34 oligonucleotides, were applied to the filterplates, followed by incubation at 37° C. for 10 min. The filterplates were then placed over oligo(dT)-immobilized microplates (GenePlate, RNAture), and centrifuged at 2000×g for 5 min at 4° C. Following overnight storage at 4° C., the microplates were washed with 100 μl plain lysis buffer 3 times, followed by 150 μl of wash buffer (0.5 M NaCl, 10 mM Tris, pH 7.4, 1 mM EDTA) 3 times at 4° C. The cDNA was directly synthesized in each well by adding 30 μl of buffer containing 1×RT-buffer, 1.25 mM each of dNTP, 4 units rRNasin, and 80 units of MMLV reverse transcriptase (Promega) (without primers), and incubation at 37° C. for 2 hours. The specific primer-primed cDNA existed in solution, and oligo(dT)-primed cDNA stayed immobilized in the microplate. […]

[5] = test system: TNF-α mRNA; assay: PHA-induced TNF-α mRNA expression in heparinized whole blood ex vivo; type: cell-based, human; settings: for ΔΔCt (mean ± standard deviation, n = 3), TNFα mRNA: supplement 30 min, then 100 μg/mL PHA 2 h, concentrations per footnote
Experimental: as §1, §2, §3

[6] = test system: IL-4 mRNA; assay: PHA-induced IL-4 mRNA expression in heparinized whole blood ex vivo; type: cell-based, human; settings: for ΔΔCt (mean ± standard deviation, n = 3), IL-4 mRNA: supplement 30 min, then 100 μg/mL PHA 2 h, concentrations per footnote; for effect on PHA-induced IL-4 expression, in words: summary over 7 subjects of Table I
Experimental: as §1, §2, §3

[7] = test system: CD32A mRNA (IgG Fc receptor); assay: CD32A mRNA level in leukocytes after exposure of whole blood to dietary components (no stimulating agent); type: cell-based, human; settings: one individual; 3 hours at 37° C.; PBS control
Experimental: In brief, home-made 96-well filterplates were placed over collection plates, and 150 μl 5 mM Tris, pH 7.4, was applied. Following centrifugation at 120×g for 1 min at 4° C., 50 μl of blood samples were applied to each well and immediately centrifuged at 120×g for 2 min at 4° C., followed by washing of each well with 300 μl PBS once with centrifugation at 2000×g for 5 min at 4° C. […] The filterplates were then placed over oligo(dT)-immobilized microplates (GenePlate, RNAture), and centrifuged at 2000×g for 5 min at 4° C. Following overnight storage at 4° C., the microplates were washed with 100 μl plain lysis buffer 3 times, followed by 150 μl of wash buffer (0.5 M NaCl, 10 mM Tris, pH 7.4, 1 mM EDTA) 3 times at 4° C. […] The specific primer-primed cDNA existed in solution, and oligo(dT)-primed cDNA stayed immobilized in the microplate. […] Each gene was amplified in separate wells. The Ct was determined by analytical software (SDS, ABI).

[8] = at 8 hours after a single soy meal; cited from earlier work
[9] = PHA alone, 2 hours at 37° C., FIG. 1A
[10] = Subject 1, then 100 μg/mL PHA 2 h 37° C., negative = increased expression
[11] = Subject 2, then 100 μg/mL PHA 2 h
[12] = Subject 3, then 100 μg/mL PHA 2 h
[13] = Subject 4, then 100 μg/mL PHA 2 h
[14] = Subject 5, then 100 μg/mL PHA 2 h
[15] = Subject 6, then 100 μg/mL PHA 2 h
[16] = Subject 7, then 100 μg/mL PHA 2 h
[17] = summary over 7 subjects of Table I

Compound | ΔΔCt (mean ± standard deviation, n = 3), IL-2 mRNA [4, 10] | ΔΔCt (mean ± standard deviation, n = 3), IL-2 mRNA [4, 11] | ΔΔCt (mean ± standard deviation, n = 3), IL-2 mRNA [4, 12] | ΔΔCt (mean ± standard deviation, n = 3), IL-2 mRNA [4, 13] | ΔΔCt (mean ± standard deviation, n = 3), IL-2 mRNA [4, 14] | ΔΔCt (mean ± standard deviation, n = 3), IL-2 mRNA [4, 15] | ΔΔCt (mean ± standard deviation, n = 3), IL-2 mRNA [4, 16] | ΔΔCt (mean ± standard deviation, n = 3), TNFα mRNA ([5]; Subject 1) | ΔΔCt (mean ± standard deviation, n = 3), TNFα mRNA ([5]; Subject 2) | ΔΔCt (mean ± standard deviation, n = 3), TNFα mRNA ([5]; Subject 3) | ΔΔCt (mean ± standard deviation, n = 3), TNFα mRNA ([5]; Subject 4) | ΔΔCt (mean ± standard deviation, n = 3), TNFα mRNA ([5]; Subject 5) | ΔΔCt (mean ± standard deviation, n = 3), TNFα mRNA ([5]; Subject 6) | ΔΔCt (mean ± standard deviation, n = 3), TNFα mRNA ([5]; Subject 7) | ΔΔCt (mean ± standard deviation, n = 3), IL-4 mRNA ([6]; Subject 1) | ΔΔCt (mean ± standard deviation, n = 3), IL-4 mRNA ([6]; Subject 2) | ΔΔCt (mean ± standard deviation, n = 3), IL-4 mRNA ([6]; Subject 3) | ΔΔCt (mean ± standard deviation, n = 3), IL-4 mRNA ([6]; Subject 4) | ΔΔCt (mean ± standard deviation, n = 3), IL-4 mRNA ([6]; Subject 5) | ΔΔCt (mean ± standard deviation, n = 3), IL-4 mRNA ([6]; Subject 6) | other results
phytohemagglutinin [PHA] |  |  |  |  |  |  |  |  |  |  |  |  |  |  |  |  |  |  |  |  | time for TNF-α mRNA induction to reach a plateau ([1]; 100 μg/mL PHA, FIG. 1B): 30 to 60 min; EC50 of induction of TNF-α mRNA expression [1, 9]: 10 to 20 µg/mL; time for IL-2 mRNA induction to reach a plateau ([2]; 100 μg/mL PHA, FIG. 1B): 30 to 60 min; EC50 of induction of IL-2 mRNA expression [2, 9]: 10 to 20 µg/mL; time for IL-4 mRNA induction to reach a plateau ([3]; 100 μg/mL PHA, FIG. 1B): 30 to 60 min; EC50 of induction of IL-4 mRNA expression [3, 9]: 10 to 20 µg/mL
O=c1c(-c2ccc(O)cc2)coc2cc(O)cc(O)c12 [Gen., genistein] | −0.41 ± 0.53 | 0.90 ± 0.44 | 0.11 ± 0.23 | 0.08 ± 0.04 | −0.02 ± 1.03 | 0.00 ± 0.27 | −0.28 ± 0.20 | −1.14 ± 0.32 | −1.01 ± 0.04 | 0.33 ± 0.62 | −0.16 ± 0.12 | −0.32 ± 0.54 | −0.02 ± 0.20 | −0.17 ± 0.18 | −1.83 ± 0.20 | −1.56 ± 0.46 | −0.82 ± 0.34 | −1.04 ± 0.16 | −0.45 ± 0.34 | −0.34 ± 0.02 | effect on PHA-induced IL-2 expression, in words [4, 17]: mainly inactive; effect on PHA-induced TNF-α expression, in words [5, 17]: mainly inactive; ΔΔCt (mean ± standard deviation, n = 3), IL-4 mRNA ([6]; Subject 7): 0.28 ± 0.25; effect on PHA-induced IL-4 expression, in words [6]: mainly inactive; conclusion from CD32A mRNA levels (FIG. 2), in words [7]: would be suitable for use in this individual in a diet optimized for anti-cancer activity; plasma concentration [8]: 4000 µM
vitamin D [VD] | −0.13 ± 0.07 | 0.06 ± 0.40 | 0.00 ± 0.15 | −0.31 ± 0.30 | −0.45 ± 0.61 | −0.55 ± 0.14 | −0.86 ± 0.12 | −0.25 ± 1.47 | 0.14 ± 0.40 | −0.04 ± 0.27 | 0.09 ± 0.16 | −1.21 ± 0.14 | −0.48 ± 0.04 | −0.40 ± 0.15 | −0.17 ± 1.0 | 0.06 ± 0.15 | −0.77 ± 0.40 | −0.43 ± 0.17 | −1.22 ± 0.17 | −0.77 ± 0.09 | ΔΔCt (mean ± standard deviation, n = 3), IL-4 mRNA ([6]; Subject 7): −1.30 ± 0.22; effect on PHA-induced IL-4 expression, in words [6]: enhanced IL-4 expression, with 1-3 exceptions; conclusion from CD32A mRNA levels (FIG. 2), in words [7]: would be suitable for use in this individual in a diet optimized for anti-cancer activity
